According to publication PMC5908784, “Extracellular loops 2 and 3 of the calcitonin receptor selectively modify agonist binding and efficacy” (Biochemical Pharmacology, 2018):
Positions count from the first letter of the chain named. Where a SMILES comes first, the peptide text is derived from it. Bridges are numbered along the chain shown (N, C = ends).

Legend:
Assay in all cases: ERK1/2 phosphorylation
Format in all cases: cell-based
hCTR Y374A = biological target: T1, hCTR Y374A (Homo sapiens, UniProt P30988, Y374A); settings: CV1-FlpIn cells, mean ± S.E.M.; for Emax: pERK maximal response; for EC50: pERK, three-parameter logistic fit
T1 construct: c-Myc (N); expressed in transfected cells
T1 sequence (P30988 25-474 Y374A): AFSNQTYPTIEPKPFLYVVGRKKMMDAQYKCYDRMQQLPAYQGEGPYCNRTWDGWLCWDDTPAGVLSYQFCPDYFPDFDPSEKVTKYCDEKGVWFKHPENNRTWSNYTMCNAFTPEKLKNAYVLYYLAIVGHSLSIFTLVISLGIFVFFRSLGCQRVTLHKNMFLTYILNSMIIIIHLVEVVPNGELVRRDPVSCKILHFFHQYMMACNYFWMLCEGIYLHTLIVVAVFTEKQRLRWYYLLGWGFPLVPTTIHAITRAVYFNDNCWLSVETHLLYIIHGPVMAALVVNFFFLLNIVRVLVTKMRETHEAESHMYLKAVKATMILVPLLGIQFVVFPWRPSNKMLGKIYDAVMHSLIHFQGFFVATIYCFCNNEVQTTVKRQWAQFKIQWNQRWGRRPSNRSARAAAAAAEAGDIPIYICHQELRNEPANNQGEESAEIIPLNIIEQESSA
Method: (§1) Cells (2.5 × 10^4 cells/well) were seeded into 96-well culture plates and incubated overnight. […] Data were normalized to the maximal response elicited by 10% FBS determined at 6 min.
(§2) Data were corrected for radioligand occupancy using the Cheng-Prusoff equation in Prism; as such data are reported as pKi. Emax and EC50 were estimated from concentration-response curves using with a 3-parameter logistic equation in Prism (v7). These values are a composite of functional affinity, efficacy and stimulus response coupling. […] Significance was accepted at P < 0.05.

hCTR I279A = biological target: T2, hCTR I279A (Homo sapiens, UniProt P30988, I279A); settings: CV1-FlpIn cells, mean ± S.E.M.; for Emax: pERK maximal response
T2 construct: expressed in transfected cells
T2 sequence (P30988 25-474 I279A): T1 sequence (P30988 25-474 Y374A) with I255A, A350Y
Method: as §1, §2

hCTR N286A = biological target: T3, hCTR N286A (Homo sapiens, UniProt P30988, N286A); settings: CV1-FlpIn cells, mean ± S.E.M.; for Emax: pERK maximal response; for EC50: pERK, three-parameter logistic fit
T3 construct: c-Myc (N); expressed in transfected cells
T3 sequence (P30988 25-474 N286A): T1 sequence (P30988 25-474 Y374A) with N262A, A350Y
Method: as §1, §2

hCTR T295A = biological target: T4, hCTR T295A (Homo sapiens, UniProt P30988, T295A); settings: CV1-FlpIn cells, mean ± S.E.M.; for Emax: pERK maximal response; for EC50: pERK, three-parameter logistic fit
T4 construct: c-Myc (N); expressed in transfected cells
T4 sequence (P30988 25-474 T295A): T1 sequence (P30988 25-474 Y374A) with T271A, A350Y
Method: as §1, §2

hCTR D287A = biological target: T5, hCTR D287A (Homo sapiens, UniProt P30988, D287A); settings: CV1-FlpIn cells, mean ± S.E.M.; for Emax: pERK maximal response
T5 construct: c-Myc (N); expressed in transfected cells
T5 sequence (P30988 25-474 D287A): T1 sequence (P30988 25-474 Y374A) with D263A, A350Y
Method: as §1, §2

[1] = pERK, three-parameter logistic fit

CC(C)C[C@H](NC(=O)[C@H](CCCCN)NC(=O)CNC(=O)[C@H](CC(C)C)NC(=O)[C@@H](NC(=O)[C@@H]1CSSC[C@H](N)C(=O)N[C@@H](CO)C(=O)N[C@@H](CC(N)=O)C(=O)N[C@@H](CC(C)C)C(=O)N[C@@H](CO)C(=O)N[C@@H]([C@@H](C)O)C(=O)N1)C(C)C)C(=O)N[C@@H](CO)C(=O)N[C@@H](CCC(N)=O)C(=O)N[C@@H](CCC(=O)O)C(=O)N[C@@H](CC(C)C)C(=O)N[C@@H](Cc1c[nH]cn1)C(=O)N[C@@H](CCCCN)C(=O)N[C@@H](CC(C)C)C(=O)N[C@@H](CCC(N)=O)C(=O)N[C@H](C(=O)N[C@@H](Cc1ccc(O)cc1)C(=O)N1CCC[C@H]1C(=O)N[C@@H](CCCNC(=N)N)C(=O)N[C@H](C(=O)N[C@@H](CC(N)=O)C(=O)N[C@H](C(=O)NCC(=O)N[C@@H](CO)C(=O)NCC(=O)N[C@H](C(=O)N1CCC[C@H]1C(N)=O)[C@@H](C)O)[C@@H](C)O)[C@@H](C)O)[C@@H](C)O [sCT]
Emax (hCTR Y374A): 99 ± 5%
Emax (hCTR I279A): 126 ± 5%
Emax (hCTR N286A): 59 ± 5%
Emax (hCTR T295A): 49 ± 4%
Emax (hCTR D287A): 39 ± 2%

CC(C)C[C@H](NC(=O)[C@H](CC(N)=O)NC(=O)[C@H](CC(N)=O)NC(=O)[C@H](CO)NC(=O)[C@H](CO)NC(=O)[C@H](CCCNC(=N)N)NC(=O)[C@@H](NC(=O)[C@H](CC(C)C)NC(=O)[C@H](Cc1ccccc1)NC(=O)[C@H](CC(N)=O)NC(=O)[C@H](C)NC(=O)[C@H](CC(C)C)NC(=O)[C@H](CCCNC(=N)N)NC(=O)[C@H](CCC(N)=O)NC(=O)[C@@H](NC(=O)[C@H](C)NC(=O)[C@@H]1CSSC[C@H](NC(=O)[C@@H](N)CCCCN)C(=O)N[C@@H](CC(N)=O)C(=O)N[C@@H]([C@@H](C)O)C(=O)N[C@@H](C)C(=O)N[C@@H]([C@@H](C)O)C(=O)N1)[C@@H](C)O)C(C)C)C(=O)NCC(=O)N1CCC[C@H]1C(=O)N[C@H](C(=O)N[C@@H](CC(C)C)C(=O)N1CCC[C@H]1C(=O)N1CCC[C@H]1C(=O)N[C@H](C(=O)N[C@@H](CC(N)=O)C(=O)N[C@H](C(=O)NCC(=O)N[C@@H](CO)C(=O)N[C@@H](CC(N)=O)C(=O)N[C@H](C(=O)N[C@@H](Cc1ccc(O)cc1)C(N)=O)[C@@H](C)O)C(C)C)[C@@H](C)O)C(C)C [rAmy]
Emax (hCTR Y374A): 61 ± 5%
Emax (hCTR I279A): 88 ± 9%
Emax (hCTR N286A): 41 ± 6%
Emax (hCTR T295A): 28 ± 5%

CC[C@H](C)[C@H](NC(=O)[C@H](C)NC(=O)[C@@H](NC(=O)[C@H](CCC(N)=O)NC(=O)[C@@H]1CCCN1C(=O)[C@H](Cc1ccccc1)NC(=O)[C@@H](NC(=O)[C@H](Cc1c[nH]cn1)NC(=O)[C@H](Cc1ccccc1)NC(=O)[C@H](CCCCN)NC(=O)[C@H](CC(N)=O)NC(=O)[C@H](Cc1ccccc1)NC(=O)[C@H](CC(=O)O)NC(=O)[C@H](CCC(N)=O)NC(=O)[C@@H](NC(=O)[C@H](Cc1ccc(O)cc1)NC(=O)[C@@H](NC(=O)CNC(=O)[C@H](CC(C)C)NC(=O)[C@H](CCSC)NC(=O)[C@@H]1CSSC[C@H](N)C(=O)NCC(=O)N[C@@H](CC(N)=O)C(=O)N[C@@H](CC(C)C)C(=O)N[C@@H](CO)C(=O)N[C@@H]([C@@H](C)O)C(=O)N1)[C@@H](C)O)[C@@H](C)O)[C@@H](C)O)[C@@H](C)O)C(=O)NCC(=O)N[C@H](C(=O)NCC(=O)N[C@@H](C)C(=O)N1CCC[C@H]1C(N)=O)C(C)C [hCT]
Emax (hCTR Y374A): 94 ± 4%
Emax (hCTR I279A): 143 ± 10%
Emax (hCTR N286A): 52 ± 5%
Emax (hCTR T295A): 48 ± 6%
Emax (hCTR D287A): 35 ± 5%

CC(C)C[C@H](NC(=O)CNC(=O)[C@H](C)NC(=O)[C@H](CC(C)C)NC(=O)[C@H](CCCNC(=N)N)NC(=O)[C@H](Cc1cnc[nH]1)NC(=O)[C@@H](NC(=O)[C@@H](NC(=O)[C@@H]1CSSC[C@H](NC(=O)[C@H](C)N)C(=O)N[C@@H](CC(=O)O)C(=O)N[C@@H]([C@@H](C)O)C(=O)N[C@@H](C)C(=O)N[C@@H]([C@@H](C)O)C(=O)N1)C(C)C)[C@@H](C)O)C(=O)N[C@@H](CC(C)C)C(=O)N[C@@H](CO)C(=O)N[C@@H](CCCNC(=N)N)C(=O)N[C@@H](CO)C(=O)NCC(=O)NCC(=O)N[C@H](C(=O)N[C@H](C(=O)N[C@@H](CCCCN)C(=O)N[C@@H](CC(N)=O)C(=O)N[C@@H](CC(N)=O)C(=O)N[C@@H](Cc1ccccc1)C(=O)N[C@H](C(=O)N1CCC[C@H]1C(=O)N[C@H](C(=O)N[C@@H](CC(N)=O)C(=O)N[C@H](C(=O)NCC(=O)N[C@@H](CO)C(=O)N[C@@H](CCCCN)C(=O)N[C@@H](C)C(=O)N[C@@H](Cc1ccccc1)C(N)=O)C(C)C)[C@@H](C)O)C(C)C)C(C)C)C(C)C [hαCGRP]
Emax (hCTR Y374A): 49 ± 8%
EC50 (hCTR Y374A): 61.7 nM
Emax (hCTR I279A): 97 ± 11%
Emax (hCTR N286A): 31 ± 5%
EC50 (hCTR N286A): 12.9 nM
Emax (hCTR T295A): 22 ± 4%
EC50 (hCTR T295A): 20.9 nM

CSCC[C@H](NC(=O)CNC(=O)[C@H](CO)NC(=O)[C@H](Cc1ccccc1)NC(=O)[C@H](CCCNC(=N)N)NC(=O)[C@H](Cc1c[nH]cn1)NC(=O)[C@H](Cc1ccccc1)NC(=O)[C@H](CC(N)=O)NC(=O)[C@H](CC(N)=O)NC(=O)[C@H](CC(C)C)NC(=O)[C@H](CC(N)=O)NC(=O)[C@H](CCCNC(=N)N)NC(=O)[C@H](Cc1c[nH]c2ccccc12)NC(=O)[C@H](Cc1ccc(O)cc1)NC(=O)[C@H](C)NC(=O)[C@H](CO)NC(=O)[C@H](CC(C)C)NC(=O)[C@@H](NC(=O)[C@@H]1CSSC[C@H](N)C(=O)N[C@@H](CO)C(=O)N[C@@H](CC(N)=O)C(=O)N[C@@H](CC(C)C)C(=O)N[C@@H](CO)C(=O)N[C@@H]([C@@H](C)O)C(=O)N1)C(C)C)C(=O)NCC(=O)N[C@@H](Cc1ccccc1)C(=O)NCC(=O)N1CCC[C@H]1C(=O)N[C@@H](CCC(=O)O)C(=O)N[C@H](C(=O)N1CCC[C@H]1C(N)=O)[C@@H](C)O [pCT] (H-CSNLSTCVLSAYWRNLNNFHRFSGMGFGPETP-NH2; disulfide 1-7)
Emax (hCTR Y374A): 105 ± 8%
EC50 (hCTR Y374A): 2.69 nM
Emax (hCTR I279A): 122 ± 7%
EC50 (hCTR I279A; [1]): 2.19 nM
Emax (hCTR N286A): 46 ± 5%
EC50 (hCTR N286A): 1.2 nM
Emax (hCTR T295A): 50 ± 5%
EC50 (hCTR T295A): 0.759 nM
Emax (hCTR D287A): 27 ± 3%
EC50 (hCTR D287A; [1]): 12.6 nM
